The record followed here is patent publication US8236510B2, “Protein showing enhanced expression in cancer cells” (Agensys, Inc., priority 1999, dated 2012).

Where two headings read alike, the source gives them in different places.

Experiment [1] deals with cAMP accumulation in PC3-101P3A11 cells. The experiment can be described thus: cAMP accumulation in PC3 and PC3-101P3A11 cells (enzyme immunoassay). Format: cell-based, human. On the procedure:
Olfactory receptors are known to regulate biological responses by activating adenylate cyclase. In order to confirm that 101P3A11 functions as a GPCR and mediates the activation of adenylate cyclase, cAMP accumulation in PC3 and PC3-101P3A11 cells were compared (FIG. 32). Control PC3 and PC3-101P3A11 cells were grown in a low concentration of fetal bovine serum (FBS) for 14 hrs in the presence or absence of pertussis toxin (PTX). The cells were stimulated with 0.1% or 10% FBS, washed in PBS and lysed using a lysis buffer provided by Amersham Pharmacia. Intracellular concentration of cAMP was measured using a commercially available enzyme immunoassay (EIA) according to the manufacturer's recommendations (Amersham Pharmacia). Each assay was performed in duplicate. Calculations of cAMP concentrations were based on OD450 of the standard curve. Expression of 101P3A11 induced a four-fold increase in cAMP accumulation in the absence of stimulation. Treatment with 10% FBS further enhanced cAMP accumulation in PC3-101P3A11 cells to nearly seven-fold over control PC3-neo cells. 101P3A11 mediated cAMP accumulation was inhibited by PTX.
In order to confirm that anti-101P3A11 pAb has a detectable effect on cAMP accumulation, PC3 and PC3-101P3A11 cells were grown in 0.1% FBS and treated with anti-101P3A11 pAb. Cells were analyzed for cAMP content as described in FIG. 32. […]

In experiment [2] the test system is ERK phosphorylation in PC3-101P3A11 cells. The experiment can be described thus: ERK phosphorylation in PC3-101P3A11 and PC3-neo cells (anti-Phospho-ERK Western blot). It is filed as cell-based, human. The settings on record: PC3-101P3A11 cells. Here is the method:
Using Western blotting and other techniques, the ability of 101P3A11 to regulate these pathways is confirmed. Cells expressing or lacking 101P3A11 are either left untreated or stimulated with cytokines, androgen and anti-integrin antibodies. Cell lysates were analyzed using anti-phospho-specific antibodies (Cell Signaling, Santa Cruz Biotechnology) in order to detect phosphorylation and regulation of ERK, p38, AKT, PI3K, PLC and other signaling molecules. […] In the experiment, data shown in FIG. 26, control 3T3-neo and 3T3-101P3A11 cells were either treated with 0.5 or 10% FBS and whole cell lysates were analyzed by anti-phosphotyrosine Western blotting.
In this experiment, control PC3-neo cells and PC3-101P3A11 cells were left untreated (0.1% FBS) or were stimulated with 10% FBS, lipophosphatidic acid (LPA), gastrin releasing peptide (GRP), leukotriene (LKB4) or platelet activating factor (PAF). The cells were lysed and analyzed by Western blotting using anti-Phospho-ERK (FIG. 27A) or anti-ERK (FIG. 27B) mAb. […] In order to delineate the signaling pathway by which 101P3A11 mediates ERK phosphorylation in cancer cells, it was confirmed which of the two pathway inhibitors: MEK inhibitor PD98059 or the p38 inhibitor SB203580 regulate 101P3A11 mediated ERK phosphorylation (FIG. 28). […] Cells were lysed and analyzed by Western blotting using anti-Phospho-ERK or anti-ERK mAb. Treatment with 10% FBS or with GRP induced the phosphorylation of ERK in PC3-101P3A11 but not in control PC3-neo cells. 101P3A11-mediated ERK phosphorylation was inhibited by the MEK-1 inhibitor PD98059 but not the p38 inhibitor SB203580 or genistein.
Results in FIGS. 26-28 indicate that 101P3A11 regulates the activity of kinases, including ERK, and phosphatases. In order to confirm the association of 101P3A11 with phosphatase activity, the effect of the protein phosphatase inhibitor sodium orthovanadate on 101P3A11 mediated ERK phosphorylation was determined (FIG. 29). PC3-neo and PC3-101P3A11 cells were grown in media alone or in the presence of sodium orthovanadate (Na3VO4), and were stimulated with 0.1% or 10% FBS. Cells were lysed and analyzed by Western blotting using anti-Phospho-ERK or anti-ERK mAb. […] Results in FIG. 29 confirm the contribution of protein phosphatases to 101P3A11 mediated signaling.
In order to determine whether 101P3A11 signaling results in the activation of EGFR, we compared the effect of the EGFR inhibitor, AG1517, on EGFR- and 101P3A11-mediated ERK phosphorylation (FIG. 30). In FIG. 30, PC3-neo and PC3-101P3A11 cells were grown in media alone (0.1% FBS) or in the presence of AG1517. The cells were stimulated with 0.1% or 10% FBS, GRP or EGF, lysed and analyzed by Western blotting using anti-Phospho-ERK or anti-ERK mAb. Treatment with 10% FBS, GRP and EGF induced ERK phosphorylation in PC3-101P3A11 cells. […] Data in FIG. 30 indicate that some cross talk occurred between 101P3A11 and EGFR signaling pathways.
Since adenylate cyclase activity modulates intracellular levels of cAMP and induce downstream signaling events such as activation of protein kinase A, calcium and ERK MAPK signaling (Pierce K. L., et al, Oncogene. 2001, 20: 1532), we determined that PTX, an inhibitor of adenylate cyclase signaling, prevents 101P3A11-mediated ERK phosphorylation along with inhibiting cAMP accumulation (FIG. 33 and FIG. 34). PC3-neo and PC3-101P3A11 cells were grown overnight in 0.1% FBS in media alone or in the presence of pertussis toxin (PTX). Cells were stimulated with 0.1% or 10% FBS (FIG. 33) or 10% FBS, EGF or GRP (FIG. 34). Cells were lysed and analyzed by Western blotting using anti-Phospho-ERK mAb. Expression of 101P3A11 mediated ERK phosphorylation by 10% FBS in PC3 cells, which was inhibited by PTX (FIG. 33 and FIG. 34).
GPCR transmit their signal by activating trimeric G proteins. […]
On the technique in general: Immunoblotting shows a protein as a band on a membrane.

Consider pertussis toxin [PTX], for which the “inhibition of 101P3A11 mediated cAMP accumulation” value in experiment [1] is reported as “partially inhibited”; in experiment [1] (listed as pertussis toxin) it was “inhibited”. Also, the “inhibition of FBS-mediated ERK phosphorylation” value in experiment [2] (10% FBS) was “inhibited”. For the same substance, the “effect on GRP and EGF-mediated ERK phosphorylation” value in experiment [2] (GRP or EGF) is on record as “relatively unaffected”.
